From ChEMBL document CHEMBL3286369, “β-Secretase (BACE1)-inhibiting C-methylrotenoids from Abronia nana suspension cultures” (Bioorg Med Chem Lett, 2014) come the findings set out here.

The target in data set [1] is T1, Beta-secretase 1 (Homo sapiens, UniProt P56817). Nature of the data set: Inhibition of BACE1 (unknown origin).
For data set [2], the species on record is Homo sapiens. Kind of data set: Inhibition of elastase (unknown origin) up to 1 mM.
Data set [3] is filed under the species Homo sapiens. Nature of the data set: Inhibition of chymotrypsin (unknown origin) up to 1 mM.
The target in another data set is Trypsin (Homo sapiens) (UniProt P07477+P07478+P35030). Nature of the data set: Inhibition of trypsin (unknown origin) up to 1 mM. Type of data set: protein assay.
Data set [4] has as its target T1, Beta-secretase 1. Nature of the data set: Non-competitive inhibition of BACE1 (unknown origin) by Dixon plot analysis.
In data set [5] the target is T1, Beta-secretase 1. Kind of data set: Inhibition of BACE1 (unknown origin) expressed in CHO cells coexpressing human APP gene assessed as inhibition of beta-amyloid synthesis. Type of data set: cell-based.
The target in data set [6] is Beta-secretase 1 (Mus musculus) (UniProt P56818). Nature of the data set: Inhibition of BACE1 in mouse N2A cells transfected with human APP Swedish mutant assessed as amyloid beta (1-42) production at 50 uM. In kind it is cell-based. The arrangement: scale not given: the % may be the effect or the level left.
The next data set deals with N2a. Nature of the data set: Cytotoxicity against mouse N2A cells transfected with human APP Swedish mutant assessed as cell viability at 1 to 50 uM. Type of data set: cell-based.

The source made the active and inactive calls. The calls are words filed in the database; no cut-off is given here.

T1 sequence (P56817 whole entry): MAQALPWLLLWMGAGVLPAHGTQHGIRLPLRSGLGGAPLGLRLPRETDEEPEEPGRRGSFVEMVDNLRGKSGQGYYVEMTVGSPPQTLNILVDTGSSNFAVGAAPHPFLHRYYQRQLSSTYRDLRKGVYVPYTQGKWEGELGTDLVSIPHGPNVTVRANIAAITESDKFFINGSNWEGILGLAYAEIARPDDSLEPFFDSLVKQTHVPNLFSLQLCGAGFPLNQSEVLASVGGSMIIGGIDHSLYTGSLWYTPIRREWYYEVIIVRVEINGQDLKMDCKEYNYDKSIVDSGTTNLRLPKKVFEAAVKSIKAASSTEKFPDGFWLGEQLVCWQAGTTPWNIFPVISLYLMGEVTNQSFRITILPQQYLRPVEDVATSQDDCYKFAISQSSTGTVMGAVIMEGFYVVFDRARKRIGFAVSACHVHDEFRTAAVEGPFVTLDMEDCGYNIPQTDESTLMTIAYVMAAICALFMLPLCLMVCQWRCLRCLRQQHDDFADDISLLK
Sequence of Beta-secretase 1 (Mus musculus) (P56818 whole entry): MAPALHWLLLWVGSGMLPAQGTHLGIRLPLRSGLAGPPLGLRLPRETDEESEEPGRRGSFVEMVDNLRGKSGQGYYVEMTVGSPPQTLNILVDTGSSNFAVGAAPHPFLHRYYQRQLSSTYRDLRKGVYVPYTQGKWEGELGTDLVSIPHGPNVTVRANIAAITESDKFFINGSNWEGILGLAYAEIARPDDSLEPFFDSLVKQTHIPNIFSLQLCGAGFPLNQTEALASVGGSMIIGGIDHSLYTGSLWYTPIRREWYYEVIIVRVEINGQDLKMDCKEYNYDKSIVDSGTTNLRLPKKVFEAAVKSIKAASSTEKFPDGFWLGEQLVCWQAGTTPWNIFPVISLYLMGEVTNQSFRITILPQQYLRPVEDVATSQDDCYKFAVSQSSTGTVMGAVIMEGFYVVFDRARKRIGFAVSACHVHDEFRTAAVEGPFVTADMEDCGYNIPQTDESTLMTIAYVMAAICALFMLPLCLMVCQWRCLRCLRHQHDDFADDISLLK

`O=c1oc2c(O)c(O)cc3c(=O)oc4c(O)c(O)cc1c4c23` [ELLAGIC ACID] had an IC50 against Beta-secretase 1 [1] of 3.9 µM.

In turn, `COc1cc2oc3c(c(=O)c2c(O)c1C)-c1ccccc1OC3OC` (centres undefined) yielded an IC50 against Beta-secretase 1 [1] above 3000 µM.

Take `COC1Oc2cc(O)ccc2-c2c1oc1cc(O)c(C)c(O)c1c2=O` (centres undefined) [BOERAVINONE D]: the inhibition entry in the data set filed under Homo sapiens [2], in the data set filed under Homo sapiens [3] and at Trypsin (Homo sapiens) was “inactive” each time. Moreover, 4.77 µM corresponded to half-maximal inhibition on Beta-secretase 1 [1] (IC50). In addition, the inhibition entry on Beta-secretase 1 [1] was “Dose-dependent effect”. This compound displayed a Ki on Beta-secretase 1 [4] of 5.01 µM.

For `C=C[C@H](c1ccccc1O)c1cc(O)c(OC)cc1OC` [LATIFOLIN], the IC50 at Beta-secretase 1 [5] was 180 µM.

On Beta-secretase 1 [1], `O=C(O[C@@H]1O[C@@H]2COC(=O)c3cc(O)c(O)c(O)c3-c3c(cc(O)c(O)c3O)C(=O)O[C@H]2[C@H](OC(=O)c2cc(O)c(O)c(O)c2)[C@H]1OC(=O)c1cc(O)c(O)c(O)c1)c1cc(O)c(O)c(O)c1` [EUGENIIN] had an IC50 of 3.1 µM and a Ki of 6.84 µM.

In the case of `COc1cc2c(c(O)c1C)C(=O)[C@@]1(O)c3cccc(OC)c3OC[C@@H]1O2`, on Beta-secretase 1 [1], the IC50 was found to be 62.2 µM and the inhibition result was “Dose-dependent effect”.

As to `O=C(OC[C@H]1O[C@@H](OC(=O)c2cc(O)c(O)c(O)c2)[C@H](OC(=O)c2cc(O)c(O)c(O)c2)[C@@H](OC(=O)c2cc(O)c(O)c(O)c2)[C@@H]1OC(=O)c1cc(O)c(O)c(O)c1)c1cc(O)c(O)c(O)c1` [PENTAGALLOYL GLUCOSE], on Beta-secretase 1 [1], the IC50 is 3.76 µM and the Ki was 5.13 µM.

Consider `O=C1O[C@@H]2[C@@H](OC(=O)c3cc(O)c(O)c(O)c3-c3c1cc(O)c(O)c3O)[C@H](O)O[C@@H]1COC(=O)c3cc(O)c(O)c(O)c3-c3c(O)c(O)c4oc(=O)c5c(c(O)c(O)c6oc(=O)c3c4c65)-c3c(cc(O)c(O)c3O)C(=O)O[C@@H]21` [PUNICALAGIN], for which, at Beta-secretase 1 [1], the IC50 was 0.41 µM.

Regarding `COc1cc2oc3c(c(=O)c2c(O)c1C)-c1ccc(O)cc1OC3O` (centres undefined), the inhibition entry in the data set filed under Homo sapiens [2], in the data set listed under Homo sapiens [3] and on Trypsin (Homo sapiens) was “inactive” throughout. In addition, on Beta-secretase 1 [1], the midpoint of inhibition, the IC50, lay at 4.24 µM. Besides, on Beta-secretase 1 [1], the inhibition entry was “Dose-dependent effect”. The results for the Activity (in data set [6]; in the data set on N2a) were 56% and “Non-toxic”, respectively. Moreover, the affinity on Beta-secretase 1 [4], expressed as Ki, was 4.28 µM.

The term IC50 denotes the concentration that gives 50% inhibition. Broadly, the Ki is the dissociation constant of the complex between target and ligand, obtained from inhibition or displacement.
